Laboratory results reported in article PMC6114901, “An automated screening method for detecting compounds with goitrogenic activity using transgenic zebrafish embryos” (PLoS ONE, 2018).
Where two headings read alike, the source gives them in different places.

Experiments:
zebrafish embryos [1] = settings: read-out: LC50 (48–120 hpf); mortality; ref Fetter et al. [22]; cited from earlier work
[2] = system: thyroid hormone levels (T4); settings: cited from earlier work; for EC50: read-out: EC50 T4 reduction, reduction of thyroid hormone levels (immunostaining)
[3] = system: thyroglobulin (tg:mCherry reporter gene); parameters: method as in PMID 25962731; settings: manual positioning and image analysis; cited from earlier work
[4] = ref chemspider (http://www.chemspider.com); cited from earlier work
[5] = system: thyroglobulin (tg:mCherry reporter gene); test: animal or person; settings: for EC50: Danio rerio, read-out: EC50 (tg:mCherry induction)
Procedure: In order to avoid interference of test chemicals with early thyroid gland development, zebrafish embryos were cultured in exposure medium until 48 hours post fertilization (hpf). Subsequently, they were exposed to seven known thyroid endocrine disrupters for 3 days (48 to 120 hpf). The non-goitrogenic compound 3,4-dichloroaniline, that is used as reference compound in the zebrafish acute embryo toxicity test was used as negative control. […] No solvents were used. […] Five concentrations and one control were tested per compound and replicate. In the second replicate the range of concentration was adjusted to improve fitting of concentration-response curves. […] Given the lack of appropriate spectral properties stability of exposure concentrations was not analysed for potassium perchlorate. Embryos were kept in the incubator at 26°C and a 14:10 hours light:dark cycle. The exposure was conducted in crystallisation dishes covered with watchmaker glasses with 30 embryos in 30 ml exposure medium (for exposure medium refer to [26]).
Embryos were positioned ventrally toward the microscope objective. Per embryo a bright field image, an autofocus fluorescence image and a Z-stack of 9 images were obtained. The Z-stack was required in case of autofocus failure and manual selection of the focal plane. Fluorescence images were obtained with 400 ms of fluorescent light exposure at maximal light intensity and a gain of 1. […] However, care was taken, that at least 10 images per concentration and replicates were assessed. To avoid a time bias during the analysis the sequence of wells for analysis was arranged in order to obtain a uniform distribution over the entire period of analysis.
The images were analysed using a KNIME workflow (Version 3.3.3., [29]) with the extension “KNIME image processing”. In brief, images were loaded into the workflow and the background was removed automatically using the “rolling ball” procedure of the image J plugin (rolling ball size set to 50 pixels). Subsequently the area containing the thyroid gland was manually selected by drawing a rectangle around the appropriate region using the interactive annotation node. […] If possible the autofocus images were used. In case that the thyroid gland was out of focus due to the presence of autofluorescing pigment cells, an appropriate image from the Z-stack was selected. All subsequent steps were conducted without any user interaction. […] Finally the sum of pixel (reflecting area of the thyroid gland and intensity of fluorescence) was calculated for the labeled area and used as a proxy of fluorescence intensity (see Fig 1 for an overview of the workflow). For each replicate the sum was of pixels was normalized by setting controls to the value of one. For data of individual embryos see S4 Table. The KNIME workflow used for image analysis is provided as supplement file (S1 Workflow).
To characterize the potency of the investigated goitrogenic compounds, we calculated EC50 values of tg:mcherry fluorescence using the pixel sum obtained from image analysis. For each replicate the fluorescence intensity was normalized by dividing the mean fluorescence intensity of each concentration with the mean control fluorescence intensity. Concentration-response curves of tgmcherry fluorescence were fitted to the data using the Hill-slope equation (Eq 1) and used to estimate EC50 values.
The parameter Min was set to 1 and the slope (p) and the maximum fluorescence (Max) were estimated.

zebrafish embryos [6] = test: in vivo
Procedure: (§1) Fish embryo acute toxicity tests were performed similar as described previously, using 10 or 25 embryos per concentration and replicate exposed in crystallization dishes from 48 to 120 hpf. No exchange of exposure media was performed. Lethality was identified by coagulation, missing heartbeat, a non–detached tail and/or missing of somites. Raw data for mortality and phenotypic assessment are provided as S1 Table. Concentration-response curves for mortality are shown in S2 Fig.

in vivo = settings: zebrafish, in vivo, LC50 (48–120 hpf), mortality, embryos exposed 48–120 hpf
Procedure: as §1

[7] = 72 hpf, 987.65 µmol/L, replicate 2, 10 embryos
[8] = 72 hpf, 1481.48 µmol/L, replicate 2, 10 embryos
[9] = 72 hpf, 2222.22 µmol/L, replicate 2, 10 embryos
[10] = 72 hpf, 3333.33 µmol/L, replicate 2, 10 embryos
[11] = 72 hpf, 5000.00 µmol/L, replicate 2, 10 embryos
[12] = 96 hpf, 987.65 µmol/L, replicate 2, 10 embryos
[13] = 96 hpf, 1481.48 µmol/L, replicate 2, 10 embryos
[14] = 96 hpf, 2222.22 µmol/L, replicate 2, 10 embryos
[15] = 96 hpf, 3333.33 µmol/L, replicate 2, 10 embryos
[16] = 96 hpf, 5000.00 µmol/L, replicate 2, 10 embryos
[17] = 120 hpf, 937.50 µmol/L, replicate 1, 25 embryos
[18] = 120 hpf, 987.65 µmol/L, replicate 2, 10 embryos
[19] = 120 hpf, 1481.48 µmol/L, replicate 2, 10 embryos
[20] = 120 hpf, 1875.00 µmol/L, replicate 1, 25 embryos
[21] = 120 hpf, 2222.22 µmol/L, replicate 2, 10 embryos
[22] = 120 hpf, 3333.33 µmol/L, replicate 2, 10 embryos
[23] = 120 hpf, 3750.00 µmol/L, replicate 1, 25 embryos
[24] = 120 hpf, 5000.00 µmol/L, replicate 2, 10 embryos
[25] = 120 hpf, 7500.00 µmol/L, replicate 1, 25 embryos
[26] = 120 hpf, 15000.00 µmol/L, replicate 1, 25 embryos

Cn1cc[nH]c1=S [Methimazole, methimazole]
LC50 (zebrafish embryos [1]): 28.8 mM
EC50 ([2]; ref Thienpont et al. [13]): 290 µM
TDI (T4) ([2]; zebrafish, in vivo): 75
EC50 [3]: 551 µM
Log D (pH 7.4) [4]: -0.11
EC50 [5]: 279 µM
BMD 20 ([5]; zebrafish, in vivo): 186 µM
Slope ([5]; zebrafish, in vivo): 3.3
TDI ([5]; zebrafish, in vivo): 103

Oc1cccc(O)c1 [Resorcinol, resorcinol]
EC50 ([2]; ref Thienpont et al. [13]): 82 µM
TDI (T4) ([2]; thyroid disruption index based on T4 reduction, ref Thienpont et al. [13]): 62
Log D (pH 7.4) [4]: 0.86
EC50 [5]: 3.4 µM
BMD 20 ([5]; zebrafish, in vivo): 0.663 µM
Slope ([5]; zebrafish, in vivo): 0.78
TDI ([5]; zebrafish, in vivo): 1529
effect on tg:mCherry fluorescence ([5]; zebrafish, in vivo): weaker induction or repression of fluorescence
No Surviving (zebrafish embryos [6]; [7]): 10
No hatched (zebrafish embryos [6]; [7]): 9
No Surviving (zebrafish embryos [6]; [8]): 10
No hatched (zebrafish embryos [6]; [8]): 10
No Surviving (zebrafish embryos [6]; [9]): 10
No hatched (zebrafish embryos [6]; [9]): 9
No Surviving (zebrafish embryos [6]; [10]): 10
No hatched (zebrafish embryos [6]; [10]): 10
Total Sublethal (zebrafish embryos [6]; [10]): 6
Ydef (yolk deformation) (zebrafish embryos [6]; [10]): 6
No Surviving (zebrafish embryos [6]; [11]): 10
No hatched (zebrafish embryos [6]; [11]): 10
Total Sublethal (zebrafish embryos [6]; [11]): 8
Ydef (yolk deformation) (zebrafish embryos [6]; [11]): 8
No Surviving (zebrafish embryos [6]; [12]): 10
No hatched (zebrafish embryos [6]; [12]): 10
No Surviving (zebrafish embryos [6]; [13]): 10
No hatched (zebrafish embryos [6]; [13]): 10
Total Sublethal (zebrafish embryos [6]; [13]): 1
Ydef (yolk deformation) (zebrafish embryos [6]; [13]): 1
No Surviving (zebrafish embryos [6]; [14]): 10
No hatched (zebrafish embryos [6]; [14]): 10
Total Sublethal (zebrafish embryos [6]; [14]): 2
Ydef (yolk deformation) (zebrafish embryos [6]; [14]): 2
No Surviving (zebrafish embryos [6]; [15]): 10
No hatched (zebrafish embryos [6]; [15]): 10
Total Sublethal (zebrafish embryos [6]; [15]): 5
Ydef (yolk deformation) (zebrafish embryos [6]; [15]): 2
mch (malformation of chorda/scoliosis) (zebrafish embryos [6]; [15]): 5
No Surviving (zebrafish embryos [6]; [16]): 10
No hatched (zebrafish embryos [6]; [16]): 10
Total Sublethal (zebrafish embryos [6]; [16]): 10
Ydef (yolk deformation) (zebrafish embryos [6]; [16]): 7
nobc (no blood circulation) (zebrafish embryos [6]; [16]): 2
nomov (no spontaneous movement) (zebrafish embryos [6]; [16]): 10
No Surviving (zebrafish embryos [6]; [17]): 25
k/f (coagulated) (zebrafish embryos [6]; [17]): 0
No Surviving (zebrafish embryos [6]; [18]): 10
No hatched (zebrafish embryos [6]; [18]): 10
EdY / EdP (heart or yolk sac edema) (zebrafish embryos [6]; [19]): 1
No Surviving (zebrafish embryos [6]; [19]): 10
No hatched (zebrafish embryos [6]; [19]): 10
Total Sublethal (zebrafish embryos [6]; [19]): 1
Ydef (yolk deformation) (zebrafish embryos [6]; [19]): 1
No Surviving (zebrafish embryos [6]; [20]): 25
k/f (coagulated) (zebrafish embryos [6]; [20]): 0
nomov (no spontaneous movement) (zebrafish embryos [6]; [20]): 25
EdY / EdP (heart or yolk sac edema) (zebrafish embryos [6]; [21]): 1
No Surviving (zebrafish embryos [6]; [21]): 10
No hatched (zebrafish embryos [6]; [21]): 10
Total Sublethal (zebrafish embryos [6]; [21]): 2
Ydef (yolk deformation) (zebrafish embryos [6]; [21]): 2
No Surviving (zebrafish embryos [6]; [22]): 10
No hatched (zebrafish embryos [6]; [22]): 10
Total Sublethal (zebrafish embryos [6]; [22]): 5
Ydef (yolk deformation) (zebrafish embryos [6]; [22]): 5
mch (malformation of chorda/scoliosis) (zebrafish embryos [6]; [22]): 4
EdY / EdP (heart or yolk sac edema) (zebrafish embryos [6]; [23]): 25
No Surviving (zebrafish embryos [6]; [23]): 25
Total Sublethal (zebrafish embryos [6]; [23]): 25
k/f (coagulated) (zebrafish embryos [6]; [23]): 0
EdY / EdP (heart or yolk sac edema) (zebrafish embryos [6]; [24]): 8
No Surviving (zebrafish embryos [6]; [24]): 7
No hatched (zebrafish embryos [6]; [24]): 10
Total Sublethal (zebrafish embryos [6]; [24]): 7
Ydef (yolk deformation) (zebrafish embryos [6]; [24]): 8
mch (malformation of chorda/scoliosis) (zebrafish embryos [6]; [24]): 3
nobc (no blood circulation) (zebrafish embryos [6]; [24]): 10
nohb (no heartbeat) (zebrafish embryos [6]; [24]): 3
nomov (no spontaneous movement) (zebrafish embryos [6]; [24]): 10
No Surviving (zebrafish embryos [6]; [25]): 0
k/f (coagulated) (zebrafish embryos [6]; [25]): 25
No Surviving (zebrafish embryos [6]; [26]): 0
k/f (coagulated) (zebrafish embryos [6]; [26]): 25
LC10 (zebrafish embryos [6]; mortality after 72 h of exposure, S2 Fig, unit not given, in µM): 4701
Slope (zebrafish embryos [6]; mortality concentration-response curve, 72 h of exposure): 21.9
LC50 (in vivo): 5.2 mM
